Assay results taken from article PMC7156458, “Synthetic biology based construction of biological activity-related library of fungal decalin-containing diterpenoid pyrones” (Nature Communications, 2020).

Target: Aβ42 (Homo sapiens, UniProt P05067)
Test: Th-T (thioflavin-T) assay of Aβ42 aggregation
Assay type: biochemical
Conditions: for Th-T fluorescence, mean of three wells: Aβ42 aggregation time course

Sequence of Aβ42 (P05067 672-713): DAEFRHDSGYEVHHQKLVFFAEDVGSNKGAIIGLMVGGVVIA

## C=C1CCC2C(C)(CCC=C(C)C)C(O)CCC2(C)C1Cc1c(OC)oc(CO)c(C(=O)OC)c1=O (centres unmarked) [Compound 13]
Aβ42 (10 μM) ± DPPs (20 μM), room temperature
  first Th-T assay result: clearly delayed nuclei formation of Aβ42
Reading M117
  Th-T fluorescence, mean of three wells: 1.0387
Reading M118
  Th-T fluorescence, mean of three wells: 1.037
Reading M119
  Th-T fluorescence, mean of three wells: 1.04
Reading M120
  Th-T fluorescence, mean of three wells: 1.034
Reading M121
  Th-T fluorescence, mean of three wells: 1.036
Reading M122
  Th-T fluorescence, mean of three wells: 1.039
Reading M123
  Th-T fluorescence, mean of three wells: 1.034
Reading M124
  Th-T fluorescence, mean of three wells: 1.036
Reading M125
  Th-T fluorescence, mean of three wells: 1.037
Reading M126
  Th-T fluorescence, mean of three wells: 1.037
Reading M127
  Th-T fluorescence, mean of three wells: 1.0394
Reading M128
  Th-T fluorescence, mean of three wells: 1.038
Reading M129
  Th-T fluorescence, mean of three wells: 1.038
Reading M130
  Th-T fluorescence, mean of three wells: 1.033
Th-T fluorescence of Aβ42 alone began to increase after 4 h
  nucleation phase of Aβ42 delayed until: 6 h
Column suffix _10, measurement M19
  Th-T fluorescence, mean of three wells (Fig. 7a): 0.2324
Column suffix _10, measurement M20
  Th-T fluorescence, mean of three wells (Fig. 7a): 0.2323
Column suffix _10, measurement M21
  Th-T fluorescence, mean of three wells (Fig. 7a): 0.2394
Column suffix _10, measurement M22
  Th-T fluorescence, mean of three wells (Fig. 7a): 0.2441
Column suffix _10, measurement M23
  Th-T fluorescence, mean of three wells (Fig. 7a): 0.249
Column suffix _10, measurement M24
  Th-T fluorescence, mean of three wells (Fig. 7a): 0.2631
Column suffix _10, measurement M25
  Th-T fluorescence, mean of three wells (Fig. 7a): 0.2779
Column suffix _10, measurement M26
  Th-T fluorescence, mean of three wells (Fig. 7a): 0.3045
Column suffix _10, measurement M27
  Th-T fluorescence, mean of three wells (Fig. 7a): 0.3354
Column suffix _10, measurement M28
  Th-T fluorescence, mean of three wells (Fig. 7a): 0.3683
Column suffix _10, measurement M29
  Th-T fluorescence, mean of three wells (Fig. 7a): 0.4093
Column suffix _10, measurement M30
  Th-T fluorescence, mean of three wells (Fig. 7a): 0.4628
Column suffix _10, reading M1
  Th-T assay signal, mean of three wells (Fig. 7a): 0.2437
Column suffix _10, reading M2
  Th-T assay signal, mean of three wells (Fig. 7a): 0.2496
Column suffix _10, reading M3
  Th-T assay signal, mean of three wells (Fig. 7a): 0.25
Column suffix _10, reading M4
  Th-T assay signal, mean of three wells (Fig. 7a): 0.2515
Column suffix _10, reading M5
  Th-T assay signal, mean of three wells (Fig. 7a): 0.2448
Column suffix _10, reading M6
  Th-T assay signal, mean of three wells (Fig. 7a): 0.2438
Column suffix _10, reading M7
  Th-T assay signal, mean of three wells (Fig. 7a): 0.2403
Column suffix _10, reading M8
  Th-T assay signal, mean of three wells (Fig. 7a): 0.2367
Column suffix _10, reading M9
  Th-T assay signal, mean of three wells (Fig. 7a): 0.231
Column suffix _10, reading M10
  Th-T assay signal, mean of three wells (Fig. 7a): 0.233
Column suffix _10, reading M11
  Th-T assay signal, mean of three wells (Fig. 7a): 0.2291
Column suffix _10, reading M12
  Th-T assay signal, mean of three wells (Fig. 7a): 0.2292
Column suffix _10, reading M13
  Th-T assay signal, mean of three wells (Fig. 7a): 0.2301
Column suffix _10, reading M14
  Th-T assay signal, mean of three wells (Fig. 7a): 0.2289
Column suffix _10, reading M15
  Th-T assay signal, mean of three wells (Fig. 7a): 0.2274
Column suffix _10, reading M16
  Th-T assay signal, mean of three wells (Fig. 7a): 0.2305
Column suffix _10, reading M17
  Th-T assay signal, mean of three wells (Fig. 7a): 0.2352
Column suffix _10, reading M18
  Th-T assay signal, mean of three wells (Fig. 7a): 0.231
Column suffix _10, reading M85
  Fig. 7a Th-T reading, mean of three wells: 1.544
Column suffix _10, reading M86
  Fig. 7a Th-T reading, mean of three wells: 1.5365
Column suffix _10, reading M87
  Fig. 7a Th-T reading, mean of three wells: 1.543
Column suffix _10, reading M88
  Fig. 7a Th-T reading, mean of three wells: 1.544
Column suffix _10, reading M89
  Fig. 7a Th-T reading, mean of three wells: 1.563
Column suffix _10, reading M90
  Fig. 7a Th-T reading, mean of three wells: 1.554
Column suffix _10, reading M91
  Fig. 7a Th-T reading, mean of three wells: 1.5515
Column suffix _10, reading M92
  Fig. 7a Th-T reading, mean of three wells: 1.553
Column suffix _10, reading M93
  Fig. 7a Th-T reading, mean of three wells: 1.554
Column suffix _10, reading M94
  Fig. 7a Th-T reading, mean of three wells: 1.561
Column suffix _10, reading M95
  Fig. 7a Th-T reading, mean of three wells: 1.563
Column suffix _10, reading M96
  Fig. 7a Th-T reading, mean of three wells: 1.547
Column suffix _10, reading M97
  Fig. 7a Th-T reading, mean of three wells: 1.551
Column suffix _10, reading M98
  Fig. 7a Th-T reading, mean of three wells: 1.554
Column suffix _10, reading M99
  Fig. 7a Th-T reading, mean of three wells: 1.551
Column suffix _10, reading M100
  Fig. 7a Th-T reading, mean of three wells: 1.555
Column suffix _10, reading M101
  Fig. 7a Th-T reading, mean of three wells: 1.545
Column suffix _10, reading M102
  Fig. 7a Th-T reading, mean of three wells: 1.552
Column suffix _10, reading M103
  Fig. 7a Th-T reading, mean of three wells: 1.542
Column suffix _10, reading M104
  Fig. 7a Th-T reading, mean of three wells: 1.5457
Column suffix _10, reading M105
  Fig. 7a Th-T reading, mean of three wells: 1.553
Column suffix _10, reading M106
  Fig. 7a Th-T reading, mean of three wells: 1.551
Column suffix _20, measurement M19
  Th-T fluorescence, mean of three wells (Fig. 7a): 0.1811
Column suffix _20, measurement M20
  Th-T fluorescence, mean of three wells (Fig. 7a): 0.1836
Column suffix _20, measurement M21
  Th-T fluorescence, mean of three wells (Fig. 7a): 0.1846
Column suffix _20, measurement M22
  Th-T fluorescence, mean of three wells (Fig. 7a): 0.1853
Column suffix _20, measurement M23
  Th-T fluorescence, mean of three wells (Fig. 7a): 0.1827
Column suffix _20, measurement M24
  Th-T fluorescence, mean of three wells (Fig. 7a): 0.1835
Column suffix _20, measurement M25
  Th-T fluorescence, mean of three wells (Fig. 7a): 0.1855
Column suffix _20, measurement M26
  Th-T fluorescence, mean of three wells (Fig. 7a): 0.1899
Column suffix _20, measurement M27
  Th-T fluorescence, mean of three wells (Fig. 7a): 0.1923
Column suffix _20, measurement M28
  Th-T fluorescence, mean of three wells (Fig. 7a): 0.1912
Column suffix _20, measurement M29
  Th-T fluorescence, mean of three wells (Fig. 7a): 0.1931
Column suffix _20, reading M1
  Th-T assay signal, mean of three wells (Fig. 7a): 0.2486
Column suffix _20, reading M2
  Th-T assay signal, mean of three wells (Fig. 7a): 0.2414
Column suffix _20, reading M3
  Th-T assay signal, mean of three wells (Fig. 7a): 0.2279
Column suffix _20, reading M4
  Th-T assay signal, mean of three wells (Fig. 7a): 0.2173
Column suffix _20, reading M5
  Th-T assay signal, mean of three wells (Fig. 7a): 0.206
Column suffix _20, reading M6
  Th-T assay signal, mean of three wells (Fig. 7a): 0.2044
Column suffix _20, reading M7
  Th-T assay signal, mean of three wells (Fig. 7a): 0.2009
Column suffix _20, reading M8
  Th-T assay signal, mean of three wells (Fig. 7a): 0.1963
Column suffix _20, reading M9
  Th-T assay signal, mean of three wells (Fig. 7a): 0.1897
Column suffix _20, reading M10
  Th-T assay signal, mean of three wells (Fig. 7a): 0.1909
Column suffix _20, reading M11
  Th-T assay signal, mean of three wells (Fig. 7a): 0.1894
Column suffix _20, reading M12
  Th-T assay signal, mean of three wells (Fig. 7a): 0.1902
Column suffix _20, reading M13
  Th-T assay signal, mean of three wells (Fig. 7a): 0.1854
Column suffix _20, reading M14
  Th-T assay signal, mean of three wells (Fig. 7a): 0.184
Column suffix _20, reading M15
  Th-T assay signal, mean of three wells (Fig. 7a): 0.1861
Column suffix _20, reading M16
  Th-T assay signal, mean of three wells (Fig. 7a): 0.1835
Column suffix _20, reading M17
  Th-T assay signal, mean of three wells (Fig. 7a): 0.1852
Column suffix _20, reading M18
  Th-T assay signal, mean of three wells (Fig. 7a): 0.1827
Column suffix _20, reading M85
  Fig. 7a Th-T reading, mean of three wells: 1.042
Column suffix _20, reading M86
  Fig. 7a Th-T reading, mean of three wells: 1.037
Column suffix _20, reading M87
  Fig. 7a Th-T reading, mean of three wells: 1.045
Column suffix _20, reading M88
  Fig. 7a Th-T reading, mean of three wells: 1.0511
Column suffix _20, reading M89
  Fig. 7a Th-T reading, mean of three wells: 1.059
Column suffix _20, reading M90
  Fig. 7a Th-T reading, mean of three wells: 1.054
Column suffix _20, reading M91
  Fig. 7a Th-T reading, mean of three wells: 1.0453
Column suffix _20, reading M92
  Fig. 7a Th-T reading, mean of three wells: 1.043
Column suffix _20, reading M93
  Fig. 7a Th-T reading, mean of three wells: 1.047
Column suffix _20, reading M94
  Fig. 7a Th-T reading, mean of three wells: 1.054
Column suffix _20, reading M95
  Fig. 7a Th-T reading, mean of three wells: 1.054
Column suffix _20, reading M96
  Fig. 7a Th-T reading, mean of three wells: 1.04
Column suffix _20, reading M97
  Fig. 7a Th-T reading, mean of three wells: 1.041
Column suffix _20, reading M98
  Fig. 7a Th-T reading, mean of three wells: 1.046
Column suffix _20, reading M99
  Fig. 7a Th-T reading, mean of three wells: 1.051
Column suffix _20, reading M100
  Fig. 7a Th-T reading, mean of three wells: 1.05
